Measurements published in ChEMBL document CHEMBL5252563, “Structure-activity relationship studies of anti-bunyaviral cap-dependent endonuclease inhibitors” (Bioorg Med Chem Lett, 2023).

What was measured:
[1] = test system: Mammarenavirus choriomeningitidis; assay: Antiviral activity against Lymphocytic choriomeningitis virus; format: functional, organism-based
[2] = test system: Junin virus; assay: Antiviral activity against Junin virus; format: functional, organism-based; settings: Mammarenavirus juninense
[3] = Metabolic stability in rat liver microsomes; format: ADME, Microsome
[4] = Bioavailability in rat at 2 umol/kg, po or 1 umol/kg, iv administered as cassette dose; format: ADME, organism-based; settings: in vivo, at 2 µmol/kg
[5] = test system: Junin virus; assay: Potency index, ratio of ribavirin EC50 to test compound EC50 for antiviral activity against Junin virus; format: functional, Mammarenavirus juninense
[6] = Unbound fraction in rat serum at 2 umol/kg, po or 1 umol/kg, iv administered as cassette dose; format: ADME, organism-based; settings: at 2 µmol/kg
[7] = Elimination half-life in rat at 2 umol/kg, po or 1 umol/kg, iv administered as cassette dose; format: ADME, organism-based; settings: in vivo, dose 2 µmol/kg, read-out: LambdaZ (converted)
[8] = AUC in rat at 1 umol/kg, iv administered as cassette dose; format: ADME, organism-based; set-up: dose 1 µmol/kg, route iv; settings: in vivo
[9] = Metabolic stability in human liver microsomes; format: ADME, Microsome
[10] = test system: Mammarenavirus choriomeningitidis; assay: Potency index, ratio of ribavirin EC50 to test compound EC50 for antiviral activity against Lymphocytic choriomeningitis virus; format: functional

Row | Compound | EC50 [1] [µM] | EC50 [2] [µM] | other results
1 | COCCN1CN(C2c3ccccc3CCc3ccccc32)n2cc(C(=O)O)c(=O)c(O)c2C1=O | 0.0053 | 0.005 | 
2 | Cc1ccc2c(c1)C(N1CN(C(C)C)C(=O)c3c(O)c(=O)c(C(=O)O)cn31)c1cc(C)ccc1CC2 | 0.1 | 0.176 | 
3 | CCN(CC)CCN1CN(C2c3ccccc3CCc3ccccc32)n2cc(C(=O)O)c(=O)c(O)c2C1=O | > 1 | > 1 | 
4 | CC(C)N1CN(Cc2ccccc2-c2ccccc2)n2cc(C(=O)O)c(=O)c(O)c2C1=O | 0.499 | 0.437 | 
5 | O=C(Nc1nnn[nH]1)c1cn2c(c(O)c1=O)C(=O)N(CC1CC1)CN2C1c2ccccc2CCc2ccccc21 | 0.284 | 0.404 | 
6 | O=C(NO)c1cn2c(c(O)c1=O)C(=O)N(CC1CC1)CN2C1c2ccccc2CCc2ccccc21 | 0.109 | 0.12 | 
7 | O=C(O)c1cn2c(c(O)c1=O)C(=O)N(CC1CCCC1)CN2C1c2ccccc2CCc2ccccc21 | 0.017 | 0.025 | 
8 | Cc1cccc2c1CCc1c(C)cccc1C2N1CN(C(C)C)C(=O)c2c(O)c(=O)c(C(=O)O)cn21 | 0.0017 | 0.0031 | 
9 | CCN1CN(C2c3ccccc3CCc3ccccc32)n2cc(C(=O)O)c(=O)c(O)c2C1=O | 0.0062 | 0.0033 | 
10 | CC(C)N1CN(C2c3ccccc3CCc3ccccc32)n2cc(C(=O)O)c(=O)c(O)c2C1=O | 0.0045 | 0.0024 | Stability [3]: 81.8%; bioavailability [4]: 10.1%; Ratio EC50 [5]: 1000; fraction unbound [6]: 0.00293; half-life [7]: 2 h; AUC [8]: 928 nM·h; Stability [9]: 107%; Ratio EC50 [10]: 1000
11 | CC(C)N1CN(C2c3ccccc3CSc3ccccc32)n2cc(C(=O)O)c(=O)c(O)c2C1=O (stereo not drawn) | 0.008 | 0.0036 | Ratio EC50 [5]: 1000; Ratio EC50 [10]: 1000
12 | COC(=O)c1cn2c(c(O)c1=O)C(=O)N(CC1CC1)CN2C1c2ccccc2CCc2ccccc21 | 0.305 | 0.271 | 
13 | O=C(O)c1cn2c(c(O)c1=O)C(=O)N(C1CC1)CN2C1c2ccccc2CCc2ccccc21 | 0.0078 | 0.0134 | 
14 | O=C(O)c1cn2c(c(O)c1=O)C(=O)N(CC1CC1)CN2C1c2ccccc2CCc2ccccc21 | 0.0041 | 0.0058 | Stability [3]: 95.3%; bioavailability [4]: 8.2%; fraction unbound [6]: 0.0136; half-life [7]: 1.5 h; AUC [8]: 1470 nM·h; Stability [9]: 100%
15 | CN1CN(C2c3ccccc3CCc3ccccc32)n2cc(C(=O)O)c(=O)c(O)c2C1=O | 0.024 | 0.0092 | 
16 | O=C(O)c1cn2c(c(O)c1=O)C(=O)N(CC1CCCCC1)CN2C1c2ccccc2CCc2ccccc21 | 0.015 | 0.02 | 
17 | Cc1ccc2c(c1)CCc1cc(C)ccc1C2N1CN(C(C)C)C(=O)c2c(O)c(=O)c(C(=O)O)cn21 | 0.013 | 0.034 | 
18 | O=C1c2c(O)c(=O)c(-c3noc(=O)[nH]3)cn2N(C2c3ccccc3CCc3ccccc32)CN1CC1CC1 | 0.119 | 0.189 | 
19 | O=C1c2c(O)c(=O)c(-c3nnn[nH]3)cn2N(C2c3ccccc3CCc3ccccc32)CN1CC1CC1 | 0.127 | > 1 | 
20 | CC(C)N1CN(Cc2ccccc2)n2cc(C(=O)O)c(=O)c(O)c2C1=O | > 1 | > 1 | 
21 | NC(=O)c1ncn([C@@H]2O[C@H](CO)[C@@H](O)[C@H]2O)n1 [RIBAVIRIN] | 3.5 | 2.5 | 
